Reference: patent US10472334B2, “Small molecules for inhibiting male fertility” (The University of North Carolina at Chapel Hill, priority 2014, dated 2019)

Assays:
[1] = test system: human spermatozoa; experiment: Intracellular free calcium in Fluo-4 loaded spermatozoa; assay type: cell-based
Experimental: A series of experiments was performed to determine the mechanism of action of the compounds described herein. The experiments were carried out as described in O'Rand and Widgren, “Loss of Calcium in Human Spermatozoa via EPPIN, the Semenogelin Receptor,” Biology of Reproduction, (2012) 86(2):55, 1-7.
Fluo-4 AM-loaded spermatozoa were pipetted into 96-well black-walled plates (Perkin Elmer, Waltham, Mass.) at 1.13105-0.93105 spermatozoa/well in 50 μl of M16M at 378 C, and read in a BioTek (Winookski, Vt.) Synergy2 Multiplatform automated plate reader (with heater and shaker). Wells were excited using a 485/20 filter, and emission was read with a 528/20 filter, and data were acquired using a kinetic modification of the Alexafluor 488 protocol in the Gen5 software program (BioTek). […] After treatment of spermatozoa in each well with control or test reagents was completed (10-15 min), the Fluo-4 in the spermatozoa in each well was calibrated by adding ionomycin (2.5 μM), followed 15 min later by the addition of Mn^2 (2 mM MnCl2) to bring the fluorescence (F) to 30% of that of the saturated dye. […] Using these values for each well, the Fmax and Fmin were calculated according to the method of Kao et al. [Kao et al., J Biol Chem. 1989; 264:8179-8184.].
Fluorescence measurements were converted to calcium concentration according to the equation [Ca^2+]=Kd([F−Fmin]/[Fmax−F]) […]

[2] = molecular target: T1, recombinant human EPPIN (Homo sapiens, UniProt O95925); experiment: AlphaScreen epitope assay: inhibition of anti-EPPIN (S21C, C-terminal domain) antibody binding to histidine-tagged recombinant human EPPIN; conditions: Figure 2; TZ4_121 concentration-response, percent of control value vs. log concentration; His-tagged rhEPPIN (E. coli, lacks part of N-terminal secretory signal) on NTA-donor beads, anti-EPPIN S21C on protein A-acceptor beads; spread printed +/- 10.4
T1 construct: His-tagged (FLAG tag also stated); E. coli M15[pREP-4], Ni-NTA purified; AlphaScreen with anti-EPPIN S21C antibody
T1 sequence (O95925 22-133): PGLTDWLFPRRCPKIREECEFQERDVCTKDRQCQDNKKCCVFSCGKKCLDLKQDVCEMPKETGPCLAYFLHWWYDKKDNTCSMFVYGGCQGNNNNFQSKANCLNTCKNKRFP
Excerpt: Two assays for high throughput screening (HTS) of compounds have been established and validated. In one embodiment, these assays are based on an adaptation of the AlphaScreen™ assay developed by PerkinElmer (Waltham, Mass.). In the AlphaScreen™ (amplified luminescent proximity homogeneous assay) assay donor and acceptor beads (˜200 nm) are employed to hold interacting protein molecules. When the interacting protein molecules bind (for example EPPIN {on the donor bead} and anti-EPPIN {on the acceptor bead}), singlet state oxygen molecules diffuse from the donor bead to the acceptor bead (˜4 μsec) and fluorophores subsequently emit light at 520-620 nm. In the primary compound screen, histidine-tagged recombinant human EPPIN is attached to NTA-donor beads and anti-EPPIN (S21C; against the EPPIN C-terminal domain) is attached to protein A-acceptor beads. This epitope specific assay gives strong and stable binding between EPPIN and the antibody. […]

[3] = Aqueous solubility (nephelometric method); assay type: physicochemical; conditions: at 100 μM
Experimental: Solutions of the test compound were prepared from DMSO stock solution at the specified test concentrations. The solutions were mixed thoroughly and aliquoted into a 384-well plate, incubated for 1 hour at 37° C., and the degree of light scattering in each solution was measured at 635 nm using a laser-based microplate nephelometer. The mean nephelometric reading at each concentration was calculated and compared to that of the blank solution and a positive control (a solution of latex at a minimum concentration sufficient to give a mean reading higher than that of blank solution, as determined by a calibration curve). The compound was judged to be soluble at a specific concentration if the mean reading was less than the reading of the positive control. In cases where the mean reading was greater than or equal to the positive control, the solution was reported as having a precipitate and a percent precipitation value was calculated using the following formula: % precipitation=(mean test compound−mean blank)/(mean positive control−mean blank)×100

- IC50 [2]: 38.2 µM
- solubility [3]: Good
SMILES: CCOC(=O)CSc1nc(NNC(=O)OC)nc(Nc2ccc(NC(=O)OC)c(O)c2)n1 [TZ4_121, [4-(3-Hydroxy-4-methoxycarbonylamino-phenylamino)-6-(N′methoxycarbonyl-hydrazino)-1,3,5-triazin-2-ylsulfanyl]-acetic acid ethyl ester]
- change in intracellular calcium of spermatozoa [1]: significant loss of calcium
